System: Mice
Experiment: Standard test for evaluation of inhalation anesthetics (mice in rotating drum; AC50, LC50, anesthetic index)
Assay type: in vivo
Settings: 10 minutes exposure; for Anesthetic index AI (LC50/AC50): calculated from LC50 and AC50; for AC50 (minimum concentration required to anesthetize 50% of the mice) / LC50 (minimum concentration required to kill 50% of the mice): when two figures are given, the actual parameter lies between them
Protocol: Mice were exposed to the anesthetic for a period of 10 minutes in a rotating drum. Observations were then made of the pinch reflex, the corneal reflex and the return of the righting reflex. At least four graded doses were employed to determine the minimum concentration required to anesthetize 50% of the mice used (AC50) and the minimum concentration required to kill 50% of the mice (LC50). The anesthetic index (AI) was then calculated from these minimum concentrations.

Structure (SMILES) | Anesthetic index AI (LC50/AC50) | AC50 (minimum concentration required to anesthetize 50% of the mice) | LC50 (minimum concentration required to kill 50% of the mice)
FC(F)OC1(F)C(F)(F)C1(F)Cl (stereo not drawn) [Example 7, 1-chloro-2-difluoromethoxy-1,2,3,3-tetrafluorocyclopropane] | > 1 | 2-10 % volume | > 10 % volume
FC(Cl)OC1(F)C(F)(F)C1(F)Cl (stereo not drawn) [Example 8, 1-chloro-2-chlorofluoromethoxy-1,2,3,3-tetrafluorocyclopropane] | 4-5 | 2 % volume | 8-10 % volume
FC(Cl)OC1(F)C(F)(F)C1(F)Br (stereo not drawn) [Example 10, 1-bromo-2-chlorofluoromethoxy-1,2,3,3-tetrafluorocyclopropane] | ~ 2 | 2-4 % volume | 6-8 % volume
FC(F)OC1(F)C(F)(F)C1(F)Br (stereo not drawn) [Example 9, 1-bromo-2-difluoromethoxy-1,2,3,3-tetrafluorocyclopropane] | > 4 | 1 % volume | > 4 % volume

From US3995062A, “Halocyclopropyl halomethyl ethers” (priority 1975, dated 1976)
